pIC50: −log10 of the molar value.
How the values were obtained:
[1] = tested on: H1581 (FGFR1 amp); assay: In vitro growth inhibition of H1581 tumor cells (MTT/CCK8); format: cell-based, Human; conditions: Homo sapiens, NCI-H1581; in vitro growth inhibition (or induction of apoptosis), cells cultured 3 to 5 days, MTT (CCK8); read-out: IC50 H1581 (FGFR1 amp)
[2] = tested on: KATO III (FGFR2 amp); assay: In vitro growth inhibition of KATO III tumor cells (MTT/CCK8); format: cell-based, Human; conditions: Homo sapiens, KATO III; in vitro growth inhibition (or induction of apoptosis), cells cultured 3 to 5 days, MTT (CCK8); read-out: IC50 KATO III (FGFR2 amp)
[3] = tested on: Hep3B2 (FGFR3/4+++); assay: In vitro growth inhibition of Hep3B2 tumor cells (MTT/CCK8); format: cell-based, Human; conditions: Homo sapiens, Hep3B; in vitro growth inhibition (or induction of apoptosis), cells cultured 3 to 5 days, MTT (CCK8); read-out: IC50 Hep3B2 (FGFR3/4+++)
[4] = tested on: KCL-22 (BCR-ABL); assay: In vitro growth inhibition of KCL-22 tumor cells (MTT/CCK8); format: cell-based, Human; conditions: Homo sapiens, KCL-22; in vitro growth inhibition (or induction of apoptosis), cells cultured 3 to 5 days, MTT (CCK8); read-out: IC50 KCL-22 (BCR-ABL)
[5] = tested on: Kasumi-1 (KIT N822K); assay: In vitro growth inhibition of Kasumi-1 tumor cells (MTT/CCK8); format: cell-based, Human; conditions: Homo sapiens, Kasumi 1; in vitro growth inhibition (or induction of apoptosis), cells cultured 3 to 5 days, MTT (CCK8); read-out: IC50 Kasumi-1 (KIT N822K)
[6] = tested on: H1703 (PDGFRa amp); assay: In vitro growth inhibition of H1703 tumor cells (MTT/CCK8); format: cell-based, Human; conditions: Homo sapiens, NCI-H1703; in vitro growth inhibition (or induction of apoptosis), cells cultured 3 to 5 days, MTT (CCK8); read-out: IC50 H1703 (PDGFRa amp)
[7] = tested on: Karpas 299 (NPM-ALK); assay: In vitro growth inhibition of Karpas 299 tumor cells (MTT/CCK8); format: cell-based, Human; conditions: Homo sapiens, KARPAS-299; in vitro growth inhibition (or induction of apoptosis), cells cultured 3 to 5 days, MTT (CCK8); read-out: IC50 Karpas 299 (NPM-ALK)
[8] = tested on: DMS114; assay: In vitro growth inhibition of DMS114 cells; format: cell-based; conditions: Homo sapiens, DMS-114, FGFR1 amp
Experimental: (§1) Adherent cells were digested with 0.25% trypsin-EDTA (Gibco). Suspension culture cells were collected by centrifugation (1700 rpm, 3 minutes). The supernatant was discarded and the cells were counted. According to each cell growth cycle, different concentrations of cells were prepared (5˜10×10^4 cells per ml), and inoculated to 96-well plates (Corning), with 100 μl per well, and incubated overnight at 37° C., 5% CO2. The next day, the test compound was added to the cultured cells (2 wells in parallel). The final concentration of the solvent was less than 1/1,000. The cells were further cultured for 3 to 5 days and assayed by MTT.
(§2) The MTT test reagent was a Dojindo CCK8 kit and the Microplate Reader was a THERMO […] FC instrument.
(§3) The adherent cells were taken out from the cell culture medium, and immediately added to a freshly prepared complete medium containing 10% CCK8 (5% FBS), 100 ul per hole. The suspended cells were directly added to a CCK8 reagent until reaching a final concentration of 10% and cultured for 1 to 4 hours. When a dark yellow color could be observed in the solvent control wells, the absorbance value at OD450 nm was measured and the cell growth rate was calculated according to the following formula: Cell Growth Rate (%)=100×(T−T0)/(C−T0)
(§4) T=optical density of drug-treated cell wells−optical density of blank control wells; T0=optical density of cell wells before drug treatment−optical density of blank control wells; C=optical density of solvent control wells−optical density of blank control wells. […] The experiments were repeated 1 to 3 times and a statistical analysis of data was conducted.
(§5) Mutations in the FGFR1-4 gene often occur in different types of cancer patients. In order to test the growth inhibition activity of the present compound against tumor cells expressing different FGFR variants, tumor cell lines expressing representative FGFR1-4 were selected for further determining the activity of compounds 25, 66, 38 and 95 of the present invention. BGJ398, a selective inhibitor of FGFR1-4, was used as the control compound. The specific test method is the same as test example 1.

[9] = tested on: Cal-120; assay: In vitro growth inhibition of Cal-120 cells; format: cell-based; conditions: Homo sapiens, FGFR1 amp
Experimental: as §1, §2, §3, §4, §5

[10] = tested on: JIMT-1; assay: In vitro growth inhibition of JIMT-1 cells; format: cell-based; conditions: Homo sapiens, FGFR1 amp, HER2 amp, PI3KCA C420R
Experimental: as §1, §2, §3, §4, §5

[11] = tested on: SNU-16; assay: In vitro growth inhibition of SNU-16 cells; format: cell-based; conditions: Homo sapiens, FGFR2 amp
Experimental: as §1, §2, §3, §4, §5

[12] = tested on: AN3-CA; assay: In vitro growth inhibition of AN3-CA cells; format: cell-based; conditions: Homo sapiens, FGFR2 mutant
Experimental: as §1, §2, §3, §4, §5

[13] = tested on: MFM-223; assay: In vitro growth inhibition of MFM-223 cells; format: cell-based; conditions: Homo sapiens, PI3KCA H1047R, FGFR1 amp, FGFR2 amp
Experimental: as §1, §2, §3, §4, §5

[14] = tested on: MDA-MB-453; assay: In vitro growth inhibition of MDA-MB-453 cells; format: cell-based; conditions: Homo sapiens, PI3KCA H1047R, FGFR4+++/Y367C
Experimental: as §1, §2, §3, §4, §5

[15] = tested on: A375; assay: In vitro growth inhibition of A375 cells; format: cell-based; conditions: Homo sapiens, A-375, BRAF V600E, FGFR2 mutant
Experimental: as §1, §2, §3, §4, §5

[16] = tested on: RT112/84; assay: In vitro growth inhibition of RT112/84 cells; format: cell-based; conditions: Homo sapiens, FGFR3-TACC3
Experimental: as §1, §2, §3, §4, §5

[17] = tested on: Huh-7; assay: In vitro growth inhibition of Huh-7 cells; format: cell-based; conditions: Homo sapiens, FGFR3+++, FGFR4 +++
Experimental: as §1, §2, §3, §4, §5

[18] = tested on: JHH-7; assay: In vitro growth inhibition of JHH-7 cells; format: cell-based; conditions: Homo sapiens, JHH7, FGFR3+++, FGFR4 +++
Experimental: as §1, §2, §3, §4, §5

[19] = tested on: MOLM-13 (FLT3-ITD); assay: In vitro growth inhibition of MOLM-13 tumor cells (MTT/CCK8); format: cell-based, Human; conditions: Homo sapiens, MOLM-13; in vitro growth inhibition (or induction of apoptosis), cells cultured 3 to 5 days, MTT (CCK8); read-out: IC50 MOLM-13 (FLT3-ITD)
[20] = tested on: RS4:11; assay: In vitro growth inhibition of FLT3 wild type overexpressing cells RS4:11; format: cell-based; conditions: Homo sapiens, cells over expressing FLT3 wild-type
Experimental: as §1, §2, §3, §4
(§6) The present compounds which has a high growth inhibition activity on tumor cells positive expressing FLT3-ITD were selected for the determination of IC50 concentration on FLT3 wild tyoverexpressing cells RS4:11 and FLT3 wild-type normal expressing cells Jurkat. The specific test method is the same as that of test example 1.

[21] = tested on: Jurkat; assay: In vitro growth inhibition of FLT3 wild-type normal expressing cells Jurkat; format: cell-based; conditions: Homo sapiens, cells normally expressing FLT3 wild-type
Experimental: as §1, §2, §3, §4, §6

| pIC50 [1] | pIC50 [2] | pIC50 [3] | pIC50 [4] | pIC50 [5] | pIC50 [6] | pIC50 [7] | pIC50 [19] | pIC50 [20] | SMILES | pIC50 [21] | further results |
| --- | --- | --- | --- | --- | --- | --- | --- | --- | --- | --- | --- |
| 8.16 | 9.34 | 7.41 | < 6.00 | < 6.00 | < 6.00 | < 6.00 |  |  | CCN1CCN(c2ccc(Nc3cc(N(C)C(=O)Nc4c(Cl)c(OC)cc(OC)c4Cl)ncn3)cc2)CC1 [BGJ398, reference compound] |  | pIC50 [8]: 8.16; pIC50 [9]: < 6.00; pIC50 [10]: < 6.00; pIC50 [11]: 8.66; pIC50 [12]: 7.21; pIC50 [13]: < 6.00; pIC50 [14]: < 6.00; pIC50 [15]: < 6.00; pIC50 [16]: 8.09; pIC50 [17]: 7.51; pIC50 [18]: 7.50 |
| 7.79 | 8.89 | 6.55 | 7.19 | 7.05 | 8.02 | 6.40 | > 10.30 | 6.73 | COc1cc2nccc(Oc3ccc(NC(=O)Nc4cc(C(C)(C)C)on4)cc3)c2cc1C(N)=O [Compound 1, 4-{4-[3-(5-tert-butyl-isoxazol-3-yl)-ureido]-phenoxy}-7-methoxyquinolin-6-carboxamide] | 6.28 |  |
| 7.26 | 8.20 | 7.08 | 7.70 | 7.34 | 7.71 | 6.73 | > 10.30 | 6.43 | COc1cc2nccc(Oc3ccc(NC(=O)Nc4cc(C(C)(C)C)on4)cc3Br)c2cc1C(N)=O [Compound 7, 4-{2-Bromo-4-[3-(5-tert-butyl-isoxazol-3-yl)-ureido]-phenoxy}-7-methoxyquinolin-6-carboxamide] | 6.52 |  |
| 7.71 | 8.53 | 7.34 | 7.73 | 7.45 | 7.76 | 6.85 | > 10.30 | 6.43 | COc1cc2nccc(Oc3ccc(NC(=O)Nc4cc(C(C)(C)C)on4)cc3Cl)c2cc1C(N)=O [Compound 8, 4-{4-[3-(5-tert-butyl-isoxazol-3-yl)-ureido]-2-chloro-phenoxy}-7-methoxyquinolin-6-carboxamide] | 6.54 |  |
| 8.02 | 8.86 | 7.32 | 7.45 | 6.84 | 7.73 | 6.45 | > 10.30 | 6.12 | COc1cc2nccc(Oc3ccc(NC(=O)Nc4cc(C(C)(C)C)on4)cc3F)c2cc1C(N)=O [Compound 9, 4-{4-[3-(5-tert-butyl-isoxazol-3-yl)-ureido]-2-fluoro-phenoxy}-7-methoxyquinolin-6-carboxamide] | 6.39 |  |
| 6.31 | 7.51 | 6.46 | < 6.00 | < 6.00 | 7.08 | 6.12 | 9.00 | < 6.00 | COc1cc2nccc(Oc3ccc(NC(=O)Nc4cc(C(C)(C)C)on4)cn3)c2cc1C(N)=O [Compound 24, 4-{5-[3-(5-tert-butyl-isoxazol-3-yl)-ureido]-pyridin-2-yloxy}-7-methoxyquinolin-6-carboxamide] | 6.24 |  |
| 6.98 | 8.35 | 6.78 | 7.77 | 8.14 | 6.97 | 6.41 | > 10.30 | < 6.00 | COc1cc2nccc(Oc3ccc(NC(=O)Nc4cc(C(C)(C)C)n[nH]4)cc3C)c2cc1C(N)=O [Compound 35, 4-{4-[3-(5-tert-butyl-2H-pyrazol-3-yl)-ureido]-2-methyl-phenoxy}-7-methoxyquinolin-6-carboxamide] | 6.37 |  |
| 7.18 | 8.58 | 7.10 | 7.50 | 7.15 | 6.64 | 6.75 | > 10.30 | 6.12 | COc1cc2nccc(Oc3ccc(NC(=O)Nc4cc(C(C)(C)C)n[nH]4)cc3Cl)c2cc1C(N)=O [Compound 36, 4-{4-[3-(5-tert-butyl-2H-pyrazol-3-yl)-ureido]-2-chloro-phenoxy}-7-methoxyquinolin-6-carboxamide] | 6.27 |  |
| 8.33 | 9.72 | 8.02 | 9.30 | 8.69 | 8.19 | 7.28 | 9.01 | 6.86 | COc1cc2nccc(Oc3ccc(NC(=O)Nc4cc(C(C)(C)C)n[nH]4)c(Cl)c3Cl)c2cc1C(N)=O [Compound 37, 4-{4-[3-(5-tert-butyl-2H-pyrazol-3-yl)-ureido]-2,3-dichloro-phenoxy}-7-methoxyquinolin-6-carboxamide] | 6.39 |  |
| 6.97 | 8.48 | 6.76 | 8.15 | 8.42 | 7.20 | 6.69 | 10.22 | < 6.00 | CNC(=O)c1cc2c(Oc3ccc(NC(=O)Nc4cc(C(C)(C)C)n[nH]4)cc3C)ccnc2cc1OC [Compound 52, 4-{4-[3-(5-tert-butyl-2H-pyrazol-3-yl)-ureido]-2-methyl-phenoxy}-7-methoxyquinolin-6-carboxylate acid methylamide] | < 6.00 |  |
| 8.08 | 8.88 | 7.12 | 7.99 | 7.01 | 7.15 | < 6.00 | > 10.30 | 6.30 | COc1cc2nccc(Oc3ccc(NC(=O)Nc4cc(C(C)(C)C)n[nH]4)cc3F)c2cc1NC(C)=O [Compound 102, N-(4-{4-[3-(5-tert-butyl-2H-pyrazol-3-yl)-ureido]-2-fluoro-phenoxy}-7-methoxy-quinolin-6-yl)-acetamide] |  |  |
